In patent US20100305068A1, “COMPOUNDS AND METHODS FOR MODULATING PROTEIN TRAFFICKING” (priority 2006, published 2010):

Test system: pdr5 ypt1^ts cells
Assay: microbe, parasite or virus in culture
Format: cell-based, yeast
Conditions: 37° C.; for optical density, 3.13 uM / optical density, 12.5 uM / optical density, 50 uM: Table 3, background (0 uM) 0.077; for optical density, 3.13 uM: 3.13 uM compound; for optical density, 12.5 uM: 12.5 uM compound; for optical density, 50 uM: 50 uM compound; for minimal effective concentration: Saccharomyces cerevisiae, lowest concentration tested giving growth above the 0 μM background, read-out: ypt1-ts MRC (minimal rescue concentration); for minimal effective concentration / optical density, ypt1-ts, 0.39 / optical density, ypt1-ts, 0.78 / optical density, ypt1-ts, 1.56 / optical density, ypt1-ts, 3.13 / optical density, ypt1-ts, 6.25 / optical density, ypt1-ts, 12.5 / optical density, ypt1-ts, 25: Table 2; for optical density, ypt1-ts, 0.39: 0.39 μM compound; for optical density, ypt1-ts, 0.39 / optical density, ypt1-ts, 0.78 / optical density, ypt1-ts, 1.56 / optical density, ypt1-ts, 3.13 / optical density, ypt1-ts, 6.25 / optical density, ypt1-ts, 12.5 / optical density, ypt1-ts, 25: background (0 μM) 0.058; for optical density, ypt1-ts, 0.78: 0.78 μM compound; for optical density, ypt1-ts, 1.56: 1.56 μM compound; for optical density, ypt1-ts, 3.13: 3.13 μM compound; for optical density, ypt1-ts, 6.25: 6.25 μM compound; for optical density, ypt1-ts, 12.5: 12.5 μM compound; for optical density, ypt1-ts, 25: 25 μM compound
From the text: The activity of the compounds as modulators of protein trafficking may be measured in the assays described herein that evaluate the ability of a compound to rescue an impairment in protein trafficking. For example, the yeast mutant cell line ypt1^ts can be used to identify compounds that rescue cells from the lethal phenotype of a mutant YPT1 allele (see, e.g., Examples and Schmitt et al. (1988) Cell 53:635-47). The activity may be measured, for example, in a whole yeast cell assay using 384-well screening protocol and an optical density measurement.
The yeast mutant cell line ypt1^ts suppresses, in a temperature dependent fashion, the dominant-lethal phenotype of a mutant YPT1 allele (Schmitt et al. (1988) Cell 53:635-47). ypt1^ts cells grow normally at temperatures up to 30° C., but are growth arrested at 37° C. (Id.).
A library of compounds (“The Spectrum Collection”) obtained from Microsource Discovery Systems, Inc. (Gaylordsville, Conn.) was screened to assess the ability of individual compounds to restore growth of ypt1^ts cells. Screening was carried out using ypt1^ts cells containing a mutation in the pdr5 gene (resulting in inactivation of a membrane efflux pump). The effect of the compounds was measured in pdr5 ypt1^ts cells cultured at 37° C.

| SMILES | optical density, 3.13 uM | optical density, 12.5 uM | optical density, 50 uM | minimal effective concentration [µM] | optical density, ypt1-ts, 0.39 | optical density, ypt1-ts, 0.78 | optical density, ypt1-ts, 1.56 | optical density, ypt1-ts, 3.13 | optical density, ypt1-ts, 6.25 | optical density, ypt1-ts, 12.5 | optical density, ypt1-ts, 25 |
| --- | --- | --- | --- | --- | --- | --- | --- | --- | --- | --- | --- |
| CC(C)C1=CC2=CC[C@H]3[C@](C)(CO)CCC[C@]3(C)C2CC1 (stereo partly drawn) [ABIETANOL] | 0.102 | 0.274 | 0.29 | – | – | – | – | – | – | – | – |
| CC(C)C1=CC2=CCC3[C@](C)(CCC[C@]3(C)C(=O)O)C2CC1 (stereo partly drawn) [ABIETIC ACID] | – | – | – | 3.13 | 0.107 | 0.079 | 0.1 | 0.165 | 0.173 | 0.528 | 0.61 |
| CC(=O)Nc1ccc(OC(=O)c2ccccc2O)cc1 [ACETAMINOSALOL, reference compound] | – | – | – | 12.5 | 0.085 | 0.078 | 0.083 | 0.085 | 0.103 | 0.127 | 0.198 |
| CC(=O)OCC[N+](C)(C)C.[Cl-] [ACETYLCHOLINE, reference compound] | – | – | – | 6.25 | 0.104 | 0.087 | 0.085 | 0.113 | 0.164 | 0.27 | 0.352 |
| C[n+]1c2cc(N)ccc2cc2ccc(N)cc21.[Cl-] [ACRIFLAV- INIUM HYDRO- CHLORIDE, reference compound] | 0.126 | 0.229 | 0.151 | – | – | – | – | – | – | – | – |
| CCc1cccc(CC)c1N(COC)C(=O)CCl [ALACHLOR] | 0.101 | 0.142 | 0.45 | – | – | – | – | – | – | – | – |
| COc1c2c(cc3c1OCO3)[C@]13C=C[C@H](OC)C[C@H]1N(C2)C[C@@H]3O [AMBELLINE] | 0.071 | 0.302 | 0.057 | – | – | – | – | – | – | – | – |
| COc1ccc([C@@H](C)C(=O)c2ccc(O)cc2O)cc1 [ANGOLENSIN (R)] | 0.327 | 0.652 | 0.062 | – | – | – | – | – | – | – | – |
| CC(=O)O[C@@H]1C[C@@]2(C)[C@H](c3ccoc3)C[C@H]3O[C@]32[C@]2(C)C(=O)C(O)=C3C(C)(C)C(=O)C=C[C@]3(C)[C@@H]12 [ANTHOTHECOL] | – | – | – | 3.13 | 0.161 | 0.085 | 0.12 | 0.262 | 0.537 | 0.581 | 0.557 |
| C#CCCCCCCCCCCCC(O)CC(O)CO (stereo not drawn) [AVO- CADYNE] | 0.132 | 0.425 | 0.265 | – | – | – | – | – | – | – | – |
| C#CCCCCCCCCCCCC(=O)CC(O)COC(C)=O (stereo not drawn) [AVO- CADYNONE ACETATE] | 0.126 | 0.275 | 0.057 | – | – | – | – | – | – | – | – |
| C=CCCCCCCCCCCCC(O)CC(O)CO (stereo not drawn) [AVOCADENE] | – | – | – | 6.25 | 0.097 | 0.074 | 0.09 | 0.108 | 0.134 | 0.209 | 0.408 |
| C#CCCCCCCCCCCCC(O)CC(O)COC(C)=O (stereo not drawn) [AVOCADYNE ACETATE] | 0.389 | 0.406 | 0.039 | – | – | – | – | – | – | – | – |
| O=C1c2ccccc2-c2cccc3cccc1c23 [BENZANTHRONE] | – | – | – | 3.13 | 0.108 | 0.09 | 0.123 | 0.263 | 0.491 | 0.547 | 0.383 |
| COc1ccc(-c2coc3cc(O)cc(O)c3c2=O)cc1 [BIO- CHANIN A] | 0.112 | 0.297 | 0.055 | – | – | – | – | – | – | – | – |
